Data reported in patent US5607926A, “Cephalosporin antibiotics” (Microcide Pharmaceuticals, Inc., priority 1995, dated 1997).
≈ marks a conversion by molar mass, not a printed value. Like-named read-outs stand apart in the source and are kept apart here.

How the values were obtained:
Type in all cases: cell-based
[1] = test system: S. aureus 76 (Meth^R)(lac^+); assay: In vitro antibacterial evaluation, MIC by agar dilution, S. aureus 76; conditions: Staphylococcus aureus, read-out: MIC
In short: (§1)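 In this standardized agar dilution format, compound was dissolved in PBS pH 7.2, with Tween 20 or DMSO as needed, and mixed into molten Mueller-Hinton agar to final levels of 128 down to ≤0.25 μg/mL. About 10^4 cfu were spotted per isolate, and MIC was recorded after 16-20 h at 35°-36° C.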

S. haemolyticus (Meth^R) = assay: In vitro antibacterial evaluation, MIC by agar dilution, S. haemolyticus; conditions: Staphylococcus haemolyticus, read-out: MIC
In short: as §1

S. aureus ATCC 29213 = assay: In vitro antibacterial evaluation, MIC by agar dilution, S. aureus ATCC 29213; conditions: Staphylococcus aureus, ATCC29213
In short: as §1

E. coli ATCC 25922 = assay: In vitro antibacterial evaluation, MIC by agar dilution, E. coli ATCC 25922; conditions: Escherichia coli, ATCC25922, read-out: MIC
In short: as §1

[2] = test system: S. aureus Col8A (Meth^S)(lac^-); assay: In vitro antibacterial evaluation, MIC by agar dilution, S. aureus Col8A; conditions: Staphylococcus aureus
In short: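 Log-phase isolates were spot-inoculated at about 10^4 cfu onto Mueller-Hinton agar carrying duplicate two-fold compound levels, 128 μg/mL to ≤0.25 μg/mL, following NCCLS (1991). Plates were read after 16-20 h at 35°-36° C. The lowest growth-inhibiting concentration gave the MIC (μg/ml).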

E. faecium ATCC 35667 = assay: In vitro antibacterial evaluation, MIC by agar dilution, E. faecium ATCC 35667; conditions: Enterococcus faecium, ATCC35667, read-out: MIC
In short: as §1

[3] = test system: S. epidermidis ATCC 31432; assay: In vitro antibacterial evaluation, MIC by agar dilution, S. epidermidis ATCC 31432; conditions: Staphylococcus epidermidis, ATCC31432
Experimental: The compounds of the invention were evaluated against several β-lactamresistant bacteria strains by determining the minimum inhibitory concentration (MIC, μg/ml) of each compound with respect to each strain. The MIC, the lowest concentration of antibiotic which inhibits growth of the test organism, was determined by the agar dilution method.
To determine the MIC for bacterial isolates, the test compound was incorporated in a series of two-fold dilutions into liquified Mueller-Hinton agar. Upon solidification, a number of different bacterial strains were spot inoculated with a replicating device onto the agar surface. […] The procedures used in these studies have been standardized by the National Committee for Clinical Laboratory Standards (NCCLS), as per the NCCLS publication entitled METHODS FOR DILUTION ANTIMICROBIAL SUSCEPTIBILITY TESTS (1991), which is incorporated herein by reference.
Aliquots of antimicrobial agents were prepared in phosphate buffered saline (PBS) at pH 7.2. Tween 20 or DMSO was used as a solubilizing vehicle as needed. Standard methods of vortexing, sonicating and gentle heat were used to facilitate solubilizing the test agent. Typically, the concentration of the stock solution was 10× that of the highest drug concentration tested. A 1.28 mg/mL stock solution was used with a subsequent highest working concentration of 128 μg/mL. Serial two-fold dilutions were done through ≤0.25 μg/mL. Each drug level was tested in duplicate. Two-fold drug dilutions were done in sterile 50 mL tubes with a final drug volume of 5 mL. Upon the addition of 45 mL of molten agar, a 10-fold dilution resulted. Two, 25 mL. plates were then poured into 15×150 mm square Petri plates with grids and allowed to harden.
A control plate with a reference drug, either cefotaxime, vancomycin or imipenem, was used as the positive growth control. Stock concentrations of reference antibiotics were prepared and frozen at -80° C. Upon preparation, the control plates were sealed and stored in the refrigerator for up to 1 week prior to use; however, imipenem control plates had to be prepared just prior to use. All test plates were used within 24 hours of preparation.
Satisfactory results were obtained where the inoculum contained about 10^4 colony forming units (cfu) ±0.5 logs. Starting with pure cultures of the test isolates on agar plates, a few isolated colonies were transferred to a tube of nutrient broth and allowed to grow 4-6 hours at 35°-36° C. to reach log-phase growth. Dropwise addition of the broth culture to PBS was done to match a 0.5 McFarland turbidity standard equal to 10^8 cfu/mL. This was further diluted ten-fold in PBS to reach a working inoculum concentration of 10^7 cfu/mL. When 1 μL of the working inoculum was applied to the agar surface a concentration of about 10^4 cfu per spot was obtained.
Disposable sterile 1 μL loops were used to inoculate test plates, with each isolate in a designated grid on the agar plate. An alternate method of inoculation involved the use of a replica plater, a device with 48 steel pins allowing the simultaneous inoculation of multiple isolates. After the spots had dried, the plates were incubated at 35°-36° C. for 16-20 hours. Endpoints were assessed as the minimum inhibitory concentration (MIC) of antimicrobial agent.

[4] = S. epidermidis ATCC 31432, read-out: MIC

SMILES	MIC [1]	MIC (S. haemolyticus (Meth^R))	MIC (S. aureus ATCC 29213)	MIC (E. coli ATCC 25922)	MIC [2]	MIC (E. faecium ATCC 35667)	MIC [3]	MIC (S. aureus ATCC 29213; S. aureus ATCC 29213, read-out: MIC)	MIC [3, 4]
O=C(Cc1cccs1)N[C@@H]1C(=O)N2C(C(=O)O)=C(Sc3ccccc3Br)CS[C@H]12 [Cmpd 20, (7R)-7-[(2-Thienylacetyl)amino]-3-(o-bromophenylthio)-3-cephem-4-carboxylic acid]	4 µg/mL (≈ 7.82 µM)	8 µg/mL (≈ 15.6 µM)	< 0.25 µg/mL	> 32 µg/mL	< 0.25 µg/mL	2 µg/mL (≈ 3.91 µM)	< 0.25 µg/mL		
O=C(Cc1ccccc1)N[C@@H]1C(=O)N2C(C(=O)O)=C(Sc3cccc4oc5ccccc5c34)CS[C@H]12 [Cmpd 21, (7R)-7-[(Phenylacetyl)amino]-3-(dibenzofuranyl-1-thio)-3-cephem-4-carboxylic acid]	4 µg/mL (≈ 7.74 µM)	32 µg/mL (≈ 61.9 µM)	< 0.25 µg/mL	> 32 µg/mL	< 0.25 µg/mL	4 µg/mL (≈ 7.74 µM)	< 0.25 µg/mL		
Nc1nc(/C(=N/O)C(=O)N[C@@H]2C(=O)N3C(C(=O)O)=C(Sc4ccccc4I)CS[C@H]23)cs1 [Cmpd 22, (7R)-7-[(Z)-2-(aminothiazol-4-yl)-2-(hydroxyimino)acetamido]-3-(o-iodophenylthio)-3-cephem-4-carboxylic acid]	4 µg/mL (≈ 6.63 µM)	4 µg/mL (≈ 6.63 µM)		4 µg/mL (≈ 6.63 µM)	0.5 µg/mL (≈ 0.829 µM)	2 µg/mL (≈ 3.31 µM)		< 0.25 µg/mL	< 0.25 µg/mL
N#Cc1ccc(-c2ccccc2SC2=C(C(=O)O)N3C(=O)[C@@H](NC(=O)Cc4ccccc4)[C@H]3SC2)cc1 [Cmpd 23, (7R)-7-[(Phenylacetyl)amino]-3-(2-(4-cyanophenyl)phenylthio)-3-cephem-4-carboxylic acid]	8 µg/mL (≈ 15.2 µM)	16 µg/mL (≈ 30.3 µM)	< 0.25 µg/mL	> 32 µg/mL	< 0.25 µg/mL	2 µg/mL (≈ 3.79 µM)	< 0.25 µg/mL		
O=C(Cc1ccccc1)N[C@@H]1C(=O)N2C(C(=O)O)=C(Sc3cccc(Cl)c3Cl)CS[C@H]12 [Cmpd 24, (7R)-7-[(Phenylacetyl)amino]-3-(2,3-dichlorophenylthio)-3-cephem-4-carboxylic acid]	4 µg/mL (≈ 8.07 µM)	8 µg/mL (≈ 16.1 µM)	< 0.25 µg/mL	> 32 µg/mL	< 0.25 µg/mL	2 µg/mL (≈ 4.04 µM)	< 0.25 µg/mL		
O=C(Cc1cccs1)N[C@@H]1C(=O)N2C(C(=O)O)=C(Sc3ccccc3I)CS[C@H]12 [Cmpd 25, (7R)-7-[(2-Thienylacetyl)amino]-3-(o-iodophenylthio)-3-cephem-4-carboxylic acid]	4 µg/mL (≈ 7.16 µM)	16 µg/mL (≈ 28.7 µM)	0.125 µg/mL (≈ 0.224 µM)	> 32 µg/mL	0.125 µg/mL (≈ 0.224 µM)	2 µg/mL (≈ 3.58 µM)			< 0.06 µg/mL
O=C(Cc1cccs1)N[C@@H]1C(=O)N2C(C(=O)O)=C(Sc3cc(Cl)ccc3Cl)CS[C@H]12 [Cmpd 26, (7R)-7-[(2-Thienylacetyl)amino]-3-(2,5-dichlorophenylthio)-3-cephem-4-carboxylic acid]	4 µg/mL (≈ 7.98 µM)	8 µg/mL (≈ 16 µM)	< 0.25 µg/mL	> 32 µg/mL	< 0.25 µg/mL	2 µg/mL (≈ 3.99 µM)	< 0.25 µg/mL		
O=C(Cc1ccccc1)N[C@@H]1C(=O)N2C(C(=O)O)=C(Sc3ccccc3-c3ccco3)CS[C@H]12 [Cmpd 27, (7R)-7-[(Phenylacetyl)amino]-3-(2-(2-furyl)phenylthio)-3-cephem-4-carboxylic acid]	4 µg/mL (≈ 8.12 µM)	16 µg/mL (≈ 32.5 µM)	< 0.25 µg/mL	> 32 µg/mL	< 0.25 µg/mL	1 µg/mL (≈ 2.03 µM)	< 0.25 µg/mL		
O=C(Cc1ccccc1)N[C@@H]1C(=O)N2C(C(=O)O)=C(Sc3ccc(Cl)cc3Cl)CS[C@H]12 [Cmpd 28, (7R)-7-[(Phenylacetyl)amino]-3-(2,4-dichlorophenylthio)-3-cephem-4-carboxylic acid]	4 µg/mL (≈ 8.07 µM)	8 µg/mL (≈ 16.1 µM)	< 0.25 µg/mL	> 32 µg/mL	< 0.25 µg/mL	2 µg/mL (≈ 4.04 µM)	< 0.25 µg/mL		
COc1ccc(CC(=O)N[C@@H]2C(=O)N3C(C(=O)O)=C(Sc4ccccc4I)CS[C@H]23)cc1 [Cmpd 29, (7R)-7-[(p-Methoxyphenylacetyl)amino]-3-(o-iodophenylthio)-3-cephem-4-carboxylic acid]	4 µg/mL (≈ 6.87 µM)	16 µg/mL (≈ 27.5 µM)	< 0.25 µg/mL	> 32 µg/mL	< 0.25 µg/mL	1 µg/mL (≈ 1.72 µM)	< 0.25 µg/mL		
O=C(COc1ccc(Cl)cc1)N[C@@H]1C(=O)N2C(C(=O)O)=C(Sc3cc(Cl)ccc3Cl)CS[C@H]12 [Cmpd 31, (7R)-7-[(p-Chlorophenoxyacetyl)amino]-3-(2,5-dichlorophenylthio)-3-cephem-4-carboxylic acid]	4 µg/mL (≈ 7.33 µM)	8 µg/mL (≈ 14.7 µM)	< 0.25 µg/mL	> 32 µg/mL	< 0.25 µg/mL	4 µg/mL (≈ 7.33 µM)	< 0.25 µg/mL		
COc1ccc(CC(=O)N[C@@H]2C(=O)N3C(C(=O)O)=C(Sc4cc(Cl)ccc4Cl)CS[C@H]23)cc1 [Cmpd 32, (7R)-7-[(p-Methoxyphenylacetyl)amino]-3-(2,5-dichlorophenylthio)-3-cephem-4-carboxylic acid]	4 µg/mL (≈ 7.61 µM)	16 µg/mL (≈ 30.5 µM)	< 0.25 µg/mL	> 32 µg/mL	< 0.25 µg/mL	2 µg/mL (≈ 3.81 µM)	< 0.25 µg/mL		
O=C(Cc1ccccc1)N[C@@H]1C(=O)N2C(C(=O)O)=C(Sc3cc(F)ccc3Br)CS[C@H]12 [Cmpd 33, (7R)-7-[(Phenylacetyl)amino]-3-(2-bromo-5-fluorophenylthio)-3-cephem-4-carboxylic acid]	4 µg/mL (≈ 7.64 µM)	16 µg/mL (≈ 30.6 µM)	< 0.25 µg/mL	> 32 µg/mL	< 0.25 µg/mL	1 µg/mL (≈ 1.91 µM)	< 0.25 µg/mL		
